US20240254115A1 (ACONDICIONAMIENTO TARRASENSE, priority 2021, published 2024)

Tests used:
human σ2/TMEM97 receptor = target: T1, human σ2/TMEM97 receptor (Homo sapiens, UniProt Q5BJF2); experiment: Binding assay to human σ2/TMEM97 receptor; conditions: transfected HEK-293 membranes, 10 nM [3H]-DTG, 25° C. 120 minutes; + may also stand for 1-50% inhibition at 1 or 10 μM; read-out: Binding σ-2 Ki
T1 construct: expressed in transfected cells; host or cells: HEK-293
Procedure: Binding Assay to Human σ2/TMEM97 Receptor
Transfected HEK-293 membranes (15 μg) were incubated with 10 nM [^3H]-1,3-Di-o-tolylguanidine (DTG) in assay buffer containing Tris-HCl 50 mM at pH 8.0. NSB (non-specific binding) was measured by adding 10 μM haloperidol. The binding of the test compound was measured at either one concentration (% inhibition at 1 or 10 μM) or five different concentrations to determine affinity values (Ki). Plates were incubated at 25° C. for 120 minutes. After the incubation period, the reaction mix was transferred to MultiScreen HTS, FC plates (Millipore), filtered and washed 3 times with ice-cold 10 mM Tris-HCL (pH 8.0). Filters were dried and counted at approximately 40% efficiency in a MicroBeta scintillation counter (Perkin-Elmer) using EcoScint liquid scintillation cocktail.

human σ1 receptor = target: T2, human σ1 receptor (Homo sapiens, UniProt Q99720); experiment: Human σ1 receptor radioligand assay; conditions: transfected HEK-293 membranes, 5 nM [3H](+)-pentazocine, 37° C. 120 minutes; + may also stand for 1-50% inhibition at 1 or 10 μM; read-out: Binding σ-1 Ki
T2 construct: expressed in transfected cells; host or cells: HEK-293
T2 sequence (Q99720 whole entry): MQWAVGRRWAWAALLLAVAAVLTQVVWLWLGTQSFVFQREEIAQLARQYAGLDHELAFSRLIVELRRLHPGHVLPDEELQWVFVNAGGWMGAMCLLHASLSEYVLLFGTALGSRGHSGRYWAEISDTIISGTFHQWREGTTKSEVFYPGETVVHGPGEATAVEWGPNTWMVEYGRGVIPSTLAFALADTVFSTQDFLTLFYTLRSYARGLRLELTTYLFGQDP
Procedure: Human σ1 Receptor Radioligand Assay
Transfected HEK-293 membranes (7 μg) were incubated with 5 nM of [^3H](+)-pentazocine in assay buffer containing Tris-HCl 50 mM at pH 8. NBS (non-specific binding) was measured by adding 10 μM haloperidol. The binding of the test compound was measured at either one concentration (% inhibition at 1 or 10 μM) or five different concentrations to determine affinity values (Ki). Plates were incubated at 37° C. for 120 minutes. After the incubation period, the reaction mix was then transferred to MultiScreen HTS, FC plates (Millipore), filtered and plates were washed 3 times with ice-cold 10 mM Tris-HCL (pH7.4). Filters were dried and counted at approximately 40% efficiency in a MicroBeta scintillation counter (Perkin-Elmer) using EcoScint liquid scintillation cocktail.

T1 sequence (Q5BJF2 whole entry): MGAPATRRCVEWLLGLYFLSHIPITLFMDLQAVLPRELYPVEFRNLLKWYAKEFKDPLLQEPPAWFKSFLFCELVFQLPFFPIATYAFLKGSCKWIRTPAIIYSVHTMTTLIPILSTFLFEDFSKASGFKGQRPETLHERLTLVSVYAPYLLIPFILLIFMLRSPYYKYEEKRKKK

| Compound | Ki (human σ2/TMEM97 receptor) [nM] | Ki (human σ1 receptor) [nM] |
| --- | --- | --- |
| O=S(=O)(N[C@H]1CCN(Cc2ccccc2)C1)c1ccc(N2CCOCC2)nc1 [Example 1, (S)—N-(1-Benzylpyrrolidin-3-yl)-6-morpholinopyridine-3-sulfonamide] | > 1000 | < 100 |
| O=S(=O)(NC1CCN(Cc2ccccc2)CC1)c1ccc(N2CCOCC2)nc1 [Example 2, N-(1-Benzylpiperidin-4-yl)-6-morpholinopyridine-3-sulfonamide] | > 1000 | < 100 |
| O=S(=O)(N[C@@H]1CCN(Cc2ccccc2)C1)c1ccc(N2CCOCC2)nc1 [Example 3, (R)-N-(1-Benzylpyrrolidin-3-yl)-6-morpholinopyridine-3-sulfonamide] | > 1000 | < 100 |
| CN([C@H]1CCN(Cc2ccccc2)C1)S(=O)(=O)c1ccc(N2CCOCC2)nc1 [Example 4, (S)-N-(1-Benzylpyrrolidin-3-yl)-N-methyl-6-morpholinopyridine-3-sulfonamide] | > 1000 | < 100 |
| CN([C@@H]1CCN(Cc2ccccc2)C1)S(=O)(=O)c1ccc(N2CCOCC2)nc1 [Example 5, (R)-N-(1-Benzylpyrrolidin-3-yl)-N-methyl-6-morpholinopyridine-3-sulfonamide] | > 1000 | < 100 |
| C[C@H]1CN(Cc2ccccc2)C[C@@H]1NS(=O)(=O)c1ccc(N2CCOCC2)nc1 [Example 6, N-((3R,4S)-1-Benzyl-4-methylpyrrolidin-3-yl)-6-morpholinopyridine-3-sulfonamide] | 500 to 1000 | < 100 |
| O=S(=O)(NC1CCN(Cc2ccc(F)cc2)CC1)c1ccc(N2CCOCC2)nc1 [Example 7, N-(1-(4-Fluorobenzyl)piperidin-4-yl)-6-morpholinopyridine-3-sulfonamide] | > 1000 | < 100 |
| O=S(=O)(NC1CCN(Cc2cccc(F)c2)CC1)c1ccc(N2CCOCC2)nc1 [Example 8, N-(1-(3-Fluorobenzyl)piperidin-4-yl)-6-morpholinopyridine-3-sulfonamide] | > 1000 | < 100 |
| N#Cc1cccc(CN2CCC(NS(=O)(=O)c3ccc(N4CCOCC4)nc3)CC2)c1 [Example 9, N-(1-(3-Cyanobenzyl)piperidin-4-yl)-6-morpholinopyridine-3-sulfonamide] | > 1000 | 500 to 1000 |
| O=S(=O)(NC1CCN(Cc2ccc(Cl)cc2)CC1)c1ccc(N2CCOCC2)nc1 [Example 10, N-(1-(4-Chlorobenzyl)piperidin-4-yl)-6-morpholinopyridine-3-sulfonamide] | > 1000 | < 100 |
| N#Cc1ccc(CN2CCC(NS(=O)(=O)c3ccc(N4CCOCC4)nc3)CC2)cc1 [Example 11, N-(1-(4-Cyanobenzyl)piperidin-4-yl)-6-morpholinopyridine-3-sulfonamide] | > 1000 | < 100 |
| O=S(=O)(c1ccc(N2CCOCC2)nc1)N1CCC2(CCN(Cc3ccccc3)CC2)CC1 [Example 12, 4-(5-((9-Benzyl-3,9-diazaspiro[5.5]undecan-3-yl)sulfonyl)pyridin-2-yl)morpholine] | < 100 | > 1000 |
| O=S(=O)(c1ccc(N2CCOCC2)nc1)N1CCC2(CCN(Cc3ccccc3)C2)CC1 [Example 13, 4-(5-((2-Benzyl-2,8-diazaspiro[4.5]decan-8-yl)sulfonyl)pyridin-2-yl)morpholine] | 100 to 500 | > 1000 |
| C[C@@H]1CN(Cc2ccccc2)C[C@H]1NS(=O)(=O)c1ccc(N2CCOCC2)nc1 [Example 14, N-((3S,4R)-1-Benzyl-4-methylpyrrolidin-3-yl)-6-morpholinopyridine-3-sulfonamide] | > 1000 | < 100 |
| CN(CCc1ccccc1)C1CCN(S(=O)(=O)c2ccc(N3CCOCC3)nc2)CC1 [Example 15, N-Methyl-1-((6-morpholinopyridin-3-yl)sulfonyl)-N-phenethylpiperidin-4-amine] | 100 to 500 | > 1000 |
| CN(Cc1ccccc1)C1CCN(S(=O)(=O)c2ccc(N3CCOCC3)nc2)CC1 [Example 16, N-Benzyl-N-methyl-1-((6-morpholinopyridin-3-yl)sulfonyl)piperidin-4-amine] | 100 to 500 | > 1000 |
| CN(Cc1ccccc1)[C@H]1CCN(S(=O)(=O)c2ccc(N3CCOCC3)nc2)C1 [Example 17, (S)-N-Benzyl-N-methyl-1-((6-morpholinopyridin-3-yl)sulfonyl)pyrrolidin-3-amine] | > 1000 | < 100 |

| Compound | Ki (human σ2/TMEM97 receptor) [nM] | Ki (human σ1 receptor) [nM] |
| --- | --- | --- |
| CN(Cc1ccccc1)[C@H]1CC[C@H](NS(=O)(=O)c2ccc(N3CCOCC3)nc2)CC1 [Example 18, N-((1r,4r)-4-(Benzyl(methyl)amino)cyclohexyl)-6-morpholinopyridine-3-sulfonamide] | < 100 | > 1000 |
| CN(Cc1ccccc1)[C@H]1CC[C@@H](NS(=O)(=O)c2ccc(N3CCOCC3)nc2)CC1 [Example 19, N-((1s,4s)-4-(Benzyl(methyl)amino)cyclohexyl)-6-morpholinopyridine-3-sulfonamide] | < 100 | > 1000 |
| C[C@@H]1CN(c2ccc(S(=O)(=O)N[C@H]3CCN(Cc4ccccc4)C3)cn2)C[C@H](C)O1 [Example 20, N—((S)-1-Benzylpyrrolidin-3-yl)-6-((2R,6S)-2,6-dimethylmorpholino)pyridine-3-sulfonamide] | > 1000 | < 100 |
| CN(C)c1ccc(S(=O)(=O)N[C@H]2CCN(Cc3ccccc3)C2)cn1 [Example 21, (S)-N-(1-Benzylpyrrolidin-3-yl)-6-(dimethylamino) pyridine-3-sulfonamide] | > 1000 | < 100 |
| CN(C)c1ccc(S(=O)(=O)N[C@@H]2CCN(Cc3ccccc3)C2)cn1 [Example 22, (R)-N-(1-Benzylpyrrolidin-3-yl)-6-(dimethylamino) pyridine-3-sulfonamide] | > 1000 | < 100 |
| O=S(=O)(N[C@@H]1CCN(Cc2ccccc2)C1)c1ccc(N2C[C@@H]3C[C@H]2CO3)nc1 [Example 23, N-((R)-1-Benzylpyrrolidin-3-yl)-6-((1S,4S)-2-oxa-5-azabicyclo[2.2.1]heptan-5-yl)pyridine-3-sulfonamide] | > 1000 | < 100 |
| O=S(=O)(N[C@@H]1CCN(Cc2ccccc2)C1)c1cnc(N2CCOCC2)c(F)c1 [Example 24, (R)-N-(1-Benzylpyrrolidin-3-yl)-5-fluoro-6-morpholinopyridine-3-sulfonamide] | 500 to 1000 | < 100 |
| O=S(=O)(N[C@H]1CCN(Cc2ccccc2)C1)c1cnc(N2CCOCC2)c(F)c1 [Example 25, (S)-N-(1-Benzylpyrrolidin-3-yl)-5-fluoro-6-morpholinopyridine-3-sulfonamide] | > 1000 | < 100 |
| COC1CCN(c2ccc(S(=O)(=O)N[C@@H]3CCN(Cc4ccccc4)C3)cn2)CC1 [Example 26, (R)-N-(1-Benzylpyrrolidin-3-yl)-6-(4-methoxypiperidin-1-yl)pyridine-3-sulfonamide] | > 1000 | 500 to 1000 |
| O=S(=O)(N[C@@H]1CCN(Cc2ccccc2)C1)c1ccc(N2[C@@H]3CC[C@H]2COC3)nc1 [Example 27, N-((R)-1-Benzylpyrrolidin-3-yl)-6-((1R,5S)-3-oxa-8-azabicyclo [3.2.1]octan-8-yl)pyridine-3-sulfonamide] | > 1000 | – |
| CN(Cc1ccc(F)cc1)[C@H]1CC[C@H](NS(=O)(=O)c2ccc(N3CCOCC3)nc2)CC1 [Example 28, N-((1r,4r)-4-((4-Fluorobenzyl)(methyl)amino)cyclohexyl)-6-morpholinopyridine-3-sulfonamide] | < 100 | > 1000 |
| CC(C)(C)CCN1CCC2(CC1)CCN(S(=O)(=O)c1ccc(N3CCOCC3)nc1)CC2 [Example 29, 4-(5-((9-(3,3-Dimethylbutyl)-3,9-diazaspiro[5.5]undecan-3-yl)sulfonyl)pyridin-2-yl)morpholine] | < 100 | 100 to 500 |
| CN(C)c1ccc(S(=O)(=O)N[C@H]2CC[C@H](N(C)Cc3ccccc3)CC2)cn1 [Example 30, N-((1r,4r)-4-(Benzyl (methyl)amino)cyclohexyl)-6-(dimethylamino) pyridine-3-sulfonamide] | 100 to 500 | 500 to 1000 |
| CN(Cc1ccccc1)[C@H]1CC[C@H](NS(=O)(=O)c2ccc(N3CCC4(CCOC4)CC3)nc2)CC1 [Example 31] | < 100 | < 100 |
| CN(Cc1ccccc1)[C@H]1CC[C@H](NS(=O)(=O)c2ccc(N3CCCOCC3)nc2)CC1 [Example 32, N-((1r,4r)-4-(Benzyl(methyl)amino)cyclohexyl)-6-(1,4-oxazepan-4-yl) pyridine-3-sulfonamide] | < 100 | 100 to 500 |
| COc1ccc(CNC[C@H]2CCCN(S(=O)(=O)c3ccc(N4CCOCC4)nc3)C2)cn1 [Example 33, (R)-1-(6-Methoxypyridin-3-yl)-N-((1-((6-morpholinopyridin-3-yl)sulfonyl)piperidin-3-yl)methyl) methanamine] | < 100 | > 1000 |
